Results from patent US8703951B2, “Synthesis of 4H-benzo[D]pyrrolo[1,2-A]thiazoles and indolizino[6,7-b]indole derivatives and their use as antitumor therapeutic agents” (Academia Sinica, priority 2011, dated 2014).
Read-outs that look alike come from different tables or passages of the source.

Assays:
[1] = tested on: non-small cell lung carcinoma H1299; experiment: In vitro cytotoxicity, Alamar blue assay, H1299; format: cell-based, human
Protocol: (§1) Prostate cancer PC3, non-small cell lung carcinoma cells H1299, and human glioma cells U87 were purchased from the American Type Culture Collection (Rockville, Md.). OECM-1 (human gingival squamous cell carcinoma cells) was obtained from Dr C.-L. Meng (National Defense Medical College, Taiwan).^22
(§2) In preparation for in vitro cytotoxicity assays, cells were cultured at an initial density 2−5×10^4 cells per milliliter. They were maintained in a 5% CO2-humidified atmosphere at 37° C. in RPMI medium 1640 (GIBCO/BRL) containing penicillin (100 units/mL), streptomycin (100 μg/mL, GIBCO/BRL), and 5% heat-inactivated FBS. For cells grown in suspension (such as CCRF-CEM and its sublines), cytotoxicity was measured, by using XTT microculture method^23 in 96-well microtiter plates.
(§3) The cytotoxic effects of the newly synthesized compounds were determined in T-cell acute lymphocytic leukemia (CCRF-CEM) and their resistant subcell lines (CCRF-CEM/Taxol and CCRF-CEM/VBL) by the XTT assay^24 and human solid tumor cells (i.e. breast carcinoma MX-1 and colon carcinoma HCT-116) by the SRB assay^25 in a 72 h incubation using a microplate spectrophotometer as described previously.^25 After the addition of phenazine methosulfate-XTT solution, incubated at 37° C. for 6 h and absorbance at 450 and 630 nm was detected on a microplate reader (EL 340). The cytotoxicity of the newly synthesized compounds against non-small cell lung carcinoma H1299, prostate cancer PC3, oral cancer OECM-1 and glioma U87 were determined by the Alamar blue assay^26 in a 72 h incubation using a microplate spectrophotometer as described previously. After the addition of alamar blue solution, it was incubated at 37° C. for 6 h. Absorbance at 570 and 600 nm was detected on a microplate reader. IC50 values were determined from dose-effect relationship at six or seven concentrations of each drug using the CompuSyn software by Chou and Martin^27 based on the median-effect principle and plot.^28,29 Ranges given for Cisplatin were mean±SE (n=4).

[2] = tested on: oral cancer OECM-1; experiment: In vitro cytotoxicity, Alamar blue assay, OECM-1; format: cell-based, human
Protocol: as §1, §2, §3

[3] = tested on: glioma U87; experiment: In vitro cytotoxicity, Alamar blue assay, U87; format: cell-based, human
Protocol: as §1, §2, §3

[4] = tested on: prostate cancer PC3; experiment: In vitro cytotoxicity, Alamar blue assay, PC3; format: cell-based, human
Protocol: as §1, §2, §3

[5] = tested on: breast carcinoma MX-1; experiment: In vitro cytotoxicity, SRB assay, MX-1; format: cell-based, human
Description: (§4) Human colon carcinoma HCT-116 cells and human prostate adenocarcinoma PC-3 cells were obtained from American Type Culture Collection (ATCC, Rockville, Md.). Human mammary carcinoma (MX-1) tumor cells were obtained from MSKCC cell bank. The CCRF-CEM human lymphoblastic leukemia cells and their vinblastine resistant subline (CCRF-CEM/VBL, 680-fold resistance in vitro) were obtained from Dr. William Beck of the University of Illinois, Chicago, and CCRF-CEM/Taxol (330-fold resistance in vitro). Resistant cells CCRF-CEM/taxol were produced by exposing the parent cells to increasing sublethal concentration (IC50-IC90) of paclitaxel for six months.
as §2, §3

[6] = tested on: CCRF-CEM/Taxol; experiment: In vitro cytotoxicity, XTT assay, CCRF-CEM/Taxol; format: cell-based, human; settings: Table 5; for IC50: Taxol-resistant subline, XTT, 72 h, read-out: Cell Growth inhibition (IC50 μM) CCRF-CEM/Taxol; for fold of cross-resistant vs IC50 of the parent cell line, CCRF-CEM/Taxol: number in brackets
Description: as §4, §2, §3

[7] = tested on: CCRF-CEM/VBL; experiment: In vitro cytotoxicity, XTT assay, CCRF-CEM/VBL; format: cell-based, human; settings: Table 5; for IC50: vinblastine-resistant subline, XTT, 72 h, read-out: Cell Growth inhibition (IC50 μM) CCRF-CEM/VBL; for fold of cross-resistant vs IC50 of the parent cell line, CCRF-CEM/VBL: number in brackets
Description: as §4, §2, §3

[8] = tested on: human lymphoblastic leukemia (CCRF-CEM); experiment: In vitro cytotoxicity, XTT assay, CCRF-CEM; format: cell-based
Description: as §4, §2, §3

[9] = tested on: colon carcinoma HCT-116; experiment: In vitro cytotoxicity, SRB assay, HCT-116; format: cell-based, human
Description: as §4, §2, §3

[10] = Homo sapiens, CCRF-CEM, Table 5, 72 h incubation, read-out: Cell Growth inhibition (IC50 μM) CCRF-CEM
[11] = Homo sapiens, HCT-116, Table 6, 72 h
[12] = Homo sapiens, NCI-H1299, Table 6, 72 h
[13] = Homo sapiens, OECM1, Table 6, 72 h
[14] = Table 5, 72 h incubation, read-out: Cell Growth inhibition (IC50 μM) CCRF-CEM
[15] = Table 7, 72 h, read-out: IC50 (μM) CCRF/CEM

Compound	IC50 ([1]; Table 6, 72 h) [µM]	IC50 ([2]; Table 6, 72 h) [µM]	IC50 ([3]; Table 6, 72 h) [µM]	IC50 ([4]; Table 6, 72 h) [µM]	fold of cross-resistant vs IC50 of the parent cell line, CCRF-CEM/Taxol [6] [×]	fold of cross-resistant vs IC50 of the parent cell line, CCRF-CEM/VBL [7] [×]	IC50 [6] [µM]	IC50 [7] [µM]	IC50 [8, 14] [µM]	also measured
N.N.[Cl][Pt][Cl] [Cisplatin, reference compound]	16.5 ± 0.9	2.44 ± 0.53	54.6 ± 3.33	4.71 ± 0.66	–	–	–	–	–	IC50 ([1]; Table 7, 72 h): 16.5 ± 0.9 µM; IC50 ([2]; Table 7, 72 h, read-out: IC50 (μM) OECM1): 2.44 ± 0.53 µM; IC50 ([3]; Table 7, 72 h): 54.6 ± 3.33 µM; IC50 ([4]; Table 7, 72 h): 4.71 ± 0.66 µM
Cc1c(CO)c(CO)c2sc3ccccc3n12 [Compound 18a, (1-Methylbenzo[d]pyrrolo[2,1-b]thiazole-2,3-diyl)dimethanol]	–	–	–	–	1.93	1.91	–	–	–	IC50 ([5]; Homo sapiens, Table 6, 72 h): 7.1 ± 0.037 µM; IC50 ([6]; Homo sapiens, CCRF-CEM): 1.88 ± 0.007 µM; IC50 ([7]; Homo sapiens, CCRF-CEM): 1.86 ± 0.01 µM; IC50 [8, 10]: 0.97 ± 0.03 µM; IC50 [9, 11]: 4.44 ± 0.08 µM
OCc1c(CO)c2sc3ccccc3n2c1-c1ccc(F)cc1 [Compound 18b, (1-(4-Fluorophenyl)benzo[d]pyrrolo[2,1-b]thiazole-2,3-diyl)dimethanol]	–	–	–	–	2.41	3.50	–	–	–	IC50 ([5]; Homo sapiens, Table 6, 72 h): 2.77 ± 0.005 µM; IC50 ([6]; Homo sapiens, CCRF-CEM): 2.56 ± 0.012 µM; IC50 [1, 12]: 9.27 ± 1.69 µM; IC50 [2, 13]: 6.03 ± 1.2 µM; IC50 ([7]; Homo sapiens, CCRF-CEM): 3.72 ± 0.175 µM; IC50 ([3]; Homo sapiens, Table 6, 72 h): 15.5 ± 1.31 µM; IC50 [8, 10]: 1.06 ± 0.04 µM; IC50 [9, 11]: 9.59 ± 0.19 µM; IC50 ([4]; Homo sapiens, Table 6, 72 h): 13.8 ± 2.15 µM
OCc1c(CO)c2sc3ccccc3n2c1-c1ccc(F)c(F)c1 [Compound 18d, (1-(3,4-Difluorophenyl)benzo[d]pyrrolo[2,1-b]thiazole-2,3-diyl)dimethanol]	–	–	–	–	100	1.47	–	–	–	IC50 ([6]; Homo sapiens, CCRF-CEM): 0.19 ± 0.004 µM; IC50 [1, 12]: 21.4 ± 3.74 µM; IC50 [2, 13]: 8.48 ± 0.67 µM; IC50 ([7]; Homo sapiens, CCRF-CEM): 0.28 ± 0.006 µM; IC50 ([3]; Homo sapiens, Table 6, 72 h): 17.4 ± 1.86 µM; IC50 [8, 10]: 0.19 ± 0.02 µM; IC50 ([4]; Homo sapiens, Table 6, 72 h): 15.2 ± 1.86 µM
OCc1c(CO)c2sc3ccccc3n2c1-c1ccc(Cl)c(Cl)c1 [Compound 18e, (1-(3,4-Dichlorophenyl)benzo[d]pyrrolo[2,1-b]thiazole-2,3-diyl)dimethanol]	–	–	–	–	–	–	–	–	–	melting point: 159 to 160 °C
OCc1c(CO)c2sc3ccccc3n2c1-c1ccc(F)c(Cl)c1 [Compound 18f, (1-(3-Chloro-4-fluorophenyl)benzo[d]pyrrolo[2,1-b]thiazole-2,3-diyl)dimethanol]	–	–	–	–	–	–	–	–	–	melting point: 178 to 179 °C
COc1ccc(-c2c(CO)c(CO)c3sc4ccccc4n23)cc1OC [Compound 18h, (1-(3,4-Dimethoxyphenyl)benzo[d]pyrrolo[2,1-b]thiazole-2,3-diyl)dimethanol]	–	–	–	–	–	–	–	–	–	melting point: 215 to 216 °C
COc1cc(-c2c(CO)c(CO)c3sc4ccccc4n23)cc(OC)c1OC [Compound 18i, (1-(3,4,5-Trimethoxyphenyl)benzo[d]pyrrolo[2,1-b]thiazole-2,3-diyl)dimethanol]	–	–	–	–	–	–	–	–	–	melting point: 160 to 161 °C
OCc1c(CO)c2sc3ccccc3n2c1C1CC1 [Compound 18j, (1-Cyclopropylbenzo[d]pyrrolo[2,1-b]thiazole-2,3-diyl)dimethanol]	–	–	–	–	2.37	2.51	–	–	–	IC50 ([6]; Homo sapiens, CCRF-CEM): 2.31 ± 0.0048 µM; IC50 [1, 12]: 13.3 ± 2.23 µM; IC50 [2, 13]: 7.12 ± 0.95 µM; IC50 ([7]; Homo sapiens, CCRF-CEM): 2.44 ± 0.01 µM; IC50 ([3]; Homo sapiens, Table 6, 72 h): 28.7 ± 4.32 µM; IC50 [8, 10]: 0.97 ± 0.07 µM; IC50 ([4]; Homo sapiens, Table 6, 72 h): 10.7 ± 2.29 µM
CCNC(=O)OCc1c(COC(=O)NCC)c2sc3ccccc3n2c1C [Compound 19a, (1-Methylbenzo[d]pyrrolo[2,1-b]thiazole-2,3-diyl)bis(methylene)bis(ethylcarbamate)]	–	–	–	–	1.30	1.30	0.45 ± 0.013	0.43 ± 0.003	0.33 ± 0.01	–
CCNC(=O)OCc1c(COC(=O)NCC)c2sc3ccccc3n2c1-c1ccc(F)cc1 [Compound 19b, (1-(4-Fluorophenyl)benzo[d]pyrrolo[2,1-b]thiazole-2,3-diyl)bis(methylene)bis(ethylcarbamate)]	13.6 ± 2.03	11.5 ± 2.63	29.2 ± 2.63	23.7 ± 3.05	5.42	6.42	0.38 ± 0.002	0.45 ± 0.033	0.07 ± 0.0002	IC50 ([5]; Table 6, 72 h): 0.48 ± 0.005 µM; IC50 ([9]; Table 6, 72 h): 0.52 ± 0.025 µM
CCNC(=O)OCc1c(COC(=O)NCC)c2sc3ccccc3n2c1-c1ccc(F)c(F)c1 [Compound 19d, (1-(3,4-Difluorophenyl)benzo[d]pyrrolo[2,1-b]thiazole-2,3-diyl)bis(methylene)bis(ethylcarbamate)]	10.3 ± 1.11	14.6 ± 3.39	38.5 ± 7.21	19.3 ± 3.44	1.61	1.47	0.34 ± 0.008	0.31 ± 0.002	0.21 ± 0.01	IC50 ([5]; Table 6, 72 h): 1.49 ± 0.04 µM; IC50 ([9]; Table 6, 72 h): 1.1 ± 0.015 µM
CCNC(=O)OCc1c(COC(=O)NCC)c2sc3ccccc3n2c1C1CC1 [Compound 19j, (1-Cyclopropylbenzo[d]pyrrolo[2,1-b]thiazole-2,3-diyl)bis(methylene)bis(ethylcarbamate)]	20.6 ± 1.89	26.3 ± 4.44	74.5 ± 8.7	24.2 ± 2.96	4.01	3.18	0.68 ± 0.004	0.54 ± 0.008	0.17 ± 0.03	–
CC(C)NC(=O)OCc1c(COC(=O)NC(C)C)c2sc3ccccc3n2c1-c1ccc(F)c(F)c1 [Compound 20d, (1-(3,4-Difluorophenyl)benzo[d]pyrrolo[2,1-b]thiazole-2,3-diyl)bis(methylene)bis(iso-propylcarbamate)]	30.8 ± 6.92	15.1 ± 1.34	74.9 ± 15.7	29.6 ± 1.83	0.57	0.90	0.19 ± 0.004	0.3 ± 0.001	0.33 ± 0.001	IC50 ([5]; Table 6, 72 h): 1 ± 0.002 µM; IC50 ([9]; Table 6, 72 h): 0.41 ± 0.005 µM
CC(C)NC(=O)OCc1c(COC(=O)NC(C)C)c2sc3ccccc3n2c1C1CC1 [Compound 20j, (1-Cyclopropylbenzo[d]pyrrolo[2,1-b]thiazole-2,3-diyl)bis(methylene)bis(iso-propyl-carbamate)]	20.4 ± 1.65	9.67 ± 1.06	45.5 ± 6.19	13.4 ± 0.84	7.30	9.00	0.73 ± 0.013	0.9 ± 0.011	0.1 ± 0.01	–
CCNC(=O)OCc1c(COC(=O)NCC)c(-c2ccc(Cl)cc2)n2c1Cc1c(n(C)c3ccccc13)C2 [Compound 27d, [3-(4-Chlorophenyl)-6-methyl-6,11-dihydro-5H-indolizino[6,7-b]indole-1,2-diyl]bis(methylene)bis(ethylcarbamate)]	–	–	–	–	–	–	–	–	–	IC50 ([5]; Table 7, 72 h): 1.83 ± 0.082 µM; IC50 [8, 15]: 0.35 ± 0.013 µM; IC50 ([9]; Table 7, 72 h): 1.17 ± 0.009 µM
CC(C)NC(=O)OCc1c(COC(=O)NC(C)C)c(-c2ccc(Cl)cc2)n2c1Cc1c(n(C)c3ccccc13)C2 [Compound 28d, [3-(4-Chlorophenyl)-6-methyl-6,11-dihydro-5H-indolizino[6,7-b]indole-1,2-diyl]bis(methylene) (isopropylcarbamate)]	–	–	–	–	–	–	–	–	–	IC50 ([5]; Table 7, 72 h): 12.39 ± 0.05 µM; IC50 [8, 15]: 0.437 ± 0.003 µM; IC50 ([9]; Table 7, 72 h): 3.06 ± 0.067 µM
